From patent US7223787B2, “Prenylation inhibitors reduce host cell permissiveness to viral replication” (priority 2003, dated 2007)

Columns and labels:
[1] = system: HCV RNA replication; assay: HCV RNA replicon levels in Huh7-K2040 cells (subgenomic replicon); conditions: for rescue of HCV RNA levels from the suppressive action of lovastatin: lovastatin-treated Huh7-K2040 cells supplemented with the metabolite, 24-hour culture; for viral RNA levels (effect in words): 24-hour culture period
[2] = system: Huh7-K2040 cells; conditions: for cellular DNA synthesis / cellular mRNA synthesis / levels: 24 hours
From the text: (§2) We therefore examined the influence of lovastatin upon the synthesis of DNA, mRNA, and protein in Huh7-K2040 cells.

[3] = system: Rap1a; assay: SDS-PAGE and blot of Rap1a prenylation in Huh7-K2040 cells; format: cell-based, human
[4] = system: HCV replication complex (NS5A); assay: Immunocytochemical NS5A staining of the HCV replication complex; format: cell-based, hepatitis C virus
From the text: HCV Replication Complex Requires Protein Geranylgeranylation. Among other functions, geranylgeranylated proteins mediate the interaction of membranes with cytoskeletal proteins (8). Such interactions are likely to be required for the formation of the ER-associated HCV replication complex, which contains the viral RNA as well as the nonstructural viral proteins (1, 2). […] To test whether lovastatin affects the replication complex, we stained cells with an antibody to NS5A and an FITC-labeled second antibody. In the absence of lovastatin treatment, much of the NS5A was localized in a punctate pattern consistent with the ER localization of the HCV replication complex.

[5] = system: H-Ras; assay: Prenylation of wild-type H-Ras (blot); format: cell-based; conditions: 10 μM
From the text: (§1) In contrast, FPTI-III had no effect on viral RNA levels. To confirm the specificity of GGTI-286 and FPTI-III action, we evaluated the effect of each compound on the prenylation of wild-type H-Ras, which is normally farnesylated, and a mutant H-Ras(S189L) in which the carboxyl-terminal amino acid has been changed to leucine, making it a substrate for GGTase 1 (21). […] Thus, the inhibitory activity of GGTI-286 on HCV RNA replication must be due to its action against GGTase I, and not farnesyl transferase.

[6] = system: H-Ras(S189L); assay: Prenylation of mutant H-Ras(S189L), substrate for GGTase I (blot); format: cell-based; conditions: 10 μM
From the text: as §1

[7] = system: West Nile virus; assay: WN virus replication in mammalian cell types; format: cell-based; conditions: several mammalian cell types
Procedure: Cells and virus. Vero (ATCC CCL-81) cells are grown in minimal essential medium (MEM) supplemented with 10% fetal bovine serum (FBS). BHK-21/WI2 (BHK-21) and Aedes albopictus C6/36 (C6/36) (ATCC CRL-1660) cells are grown in Dulbecco's modification of MEM with 10% FBS and 0.1 mM nonessential amino acids. Antibiotics are added to all media at 10 U/ml of penicillin and 10 μg/ml of streptomycin. Cells are maintained in 5% CO2 at 37° C. (Vero and BHK-21) or 28° C. (C6/36). West Nile viruses are obtained from the World Arbovirus Reference Collection and stocks are grown and plaque titrated in Vero cells. Prenylation inhibitors examined over a series of 10-fold dilutions.
IFA. Indirect immunofluorescence assays (IFA) are used to detect viral protein expression in WNV RNA-transfected BHK-21 cells. After electroporation, approximately 10^5 transfected cells are spotted onto 10-mm glass coverslips. Cells on coverslips are analyzed by IFA at various times posttransfection for viral protein synthesis. […] The coverslips are washed with PBS, mounted to a slide using fluorescent mounting medium (KPL), and observed under a fluorescence microscope equipped with a video documentation system (Zeiss, Thornwood, N.Y.).
Specific infectivity assay. […] Plaques are counted after incubation of the plates for another 12 to 24 h, and the specific infectivity is calculated as the number of PFU per microgram of RNA. […]

[8] = system: West Nile virus; assay: WN virus replication in a mouse model; format: in vivo
From the text: Virulence in mice. Mice are housed in an environmentally controlled room under biosafety level 3 conditions and are given food and water ad libitum. Female outbred CD-1 mice (Charles River Laboratories, Wilmington, Mass.) are obtained at 5 weeks of age and acclimatized for 1 week. All mice are 6 weeks of age at the start of the experiment. Eight mice per group are inoculated with diluent alone or with 10^2 PFU of virus subcutaneously (s.c.) in the left rear footpad. Diluent is PBS (endotoxin-free) supplemented with 1% FBS. Mice are evaluated clinically and weighed daily for 2 weeks, then monitored daily and weighed thrice weekly for 2 more weeks. Observed clinical signs include ruffled fur, paresis, hindleg paralysis, and tremors. Morbidity is defined as exhibition of greater than 10% weight loss or clinical signs for 2 or more days. Mice are euthanized if they become moribund.

[9] = system: Huh7-K2040 cells; assay: Cell viability of treated cultures; conditions: cultures treated over 7 days, at the concentrations used
From the text: as §2

[10] = system: HCV RNA replication; assay: HCV RNA replicon levels in Huh7-HP cells (subgenomic replicon)
[11] = system: HCV RNA replication; assay: HCV RNA replicon levels in Huh7-C5B3 cells (genome-length replicon)
[12] = system: HCV replicon RNA; conditions: hepatoma cells, recent studies (ref. 23); cited from earlier work

CC(C)=CCCC(C)=CCCC(C)=CCO [farnesol]
rescue of HCV RNA levels from the suppressive action of lovastatin [1]: neither farnesol nor oleate, mediated a dose-dependent rescue

CC(O)(CCO)CC(=O)O (centres unmarked) [mevalonate]
rescue of HCV RNA levels from the suppressive action of lovastatin [1]: dose-dependent rescue

NC(=O)NO [hydroxyurea]
global rate of cellular protein synthesis [2]: moderately suppressed
cellular DNA synthesis [2]: blocked DNA synthesis
cellular mRNA synthesis / levels [2]: did not affect
viral RNA levels (effect in words) ([1]; Huh7-K2040 cells): did not affect

COC(=O)[C@H](CC(C)C)NC(=O)c1ccc(NC[C@@H](N)CS)cc1-c1ccccc1 [GGTI-286]
prenylation of endogenous Rap1a ([3]; 10 μM): clear-cut inhibitory effects
redistribution of HCV NS5A protein from punctate to diffuse pattern [4]: produced a redistribution
prenylation (farnesylation) of wild-type H-Ras [5]: inhibiting farnesylation of H-Ras
prenylation (geranylgeranylation) of H-Ras(S189L) [6]: inhibiting farnesylation of H-Ras as well as geranylgeranylation of H-Ras(S189L)
level of HCV RNA ([1]; Huh7-K2040 cells, increasing concentrations of inhibitor): dose-dependent decrease

CC[C@H](C)C(=O)O[C@H]1C[C@@H](C)C=C2C=C[C@H](C)[C@H](CC[C@@H]3C[C@@H](O)CC(=O)O3)[C@H]21 [lovastatin]
prenylation state of Rap1a ([3]; Huh7-K2040 cells): caused the appearance of a slow-migrating form
punctate NS5A staining pattern ([4]; treatment for 48 hours): largely disappeared
WN virus replication [7]: disrupted
WN virus replication [8]: disrupted
cell viability [9]: no significant effects
global rate of cellular protein synthesis [2]: moderately suppressed
cellular DNA synthesis [2]: did not significantly affect
cellular mRNA synthesis / levels [2]: did not significantly affect
levels of viral proteins [10]: reduced the levels of viral proteins
reduction of HCV RNA levels ([1]; Huh7-K2040 cells, after 72 hours): more than 95%
reduction of HCV RNA levels ([1]; Huh7-K2040 cells, after a 24-hour treatment): more than 70%
viral protein levels ([1]; Huh7-K2040 cells, over a 72-hour culture period): reduction in viral protein levels
levels of viral proteins [11]: reduced the levels of viral proteins

C[C@@]1(CO)[C@H](O)CC[C@@]2(C)[C@H]1CC[C@H]1C[C@@H]3C[C@@]12CC[C@]3(O)CO [aphidicolin]
global rate of cellular protein synthesis [2]: moderately suppressed
cellular DNA synthesis [2]: blocked DNA synthesis
cellular mRNA synthesis / levels [2]: did not affect
viral RNA levels (effect in words) ([1]; Huh7-K2040 cells): did not affect

C[C@H](CCCC(C)(C)O)[C@H]1CC[C@H]2[C@@H]3CC=C4C[C@@H](O)CC[C@]4(C)[C@H]3CC[C@]12C [25-hydroxycholesterol]
level of HCV replicon RNA [12]: reduce the level of HCV replicon RNA

CC(C)=CCC/C(C)=C/CC/C(C)=C/CC/C(C)=C/CO [geranylgeraniol]
restoration of Rap1a geranylgeranylation ([3]; added to lovastatin-treated Huh7-K2040 cells): eliminated the upper band
prevention of loss of punctate NS5A distribution ([4]; added to lovastatin-treated cells): prevented the loss of the punctate distribution
rescue of HCV RNA levels from the suppressive action of lovastatin [1]: mediated a dose-dependent rescue
